Columns and labels:
Assay type in all cases: cell-based
[1] = biological target: T1, FOXP3 covalently linked to genomic DNA in HEK293T cells (Homo sapiens, UniProt Q9BZS1); assay: TRIzol extraction of genomic DNA from BFPX-treated HEK293T cells, Benzonase digestion, anti-FLAG western blot; settings: probe 100 μM + UV (lanes 4 and 5) vs controls (lane 1-3)
T1 construct: AVI tag (N); TEV site (N); expressed in transfected cells; host or cells: HEK293T
T1 sequence (Q9BZS1 1-431): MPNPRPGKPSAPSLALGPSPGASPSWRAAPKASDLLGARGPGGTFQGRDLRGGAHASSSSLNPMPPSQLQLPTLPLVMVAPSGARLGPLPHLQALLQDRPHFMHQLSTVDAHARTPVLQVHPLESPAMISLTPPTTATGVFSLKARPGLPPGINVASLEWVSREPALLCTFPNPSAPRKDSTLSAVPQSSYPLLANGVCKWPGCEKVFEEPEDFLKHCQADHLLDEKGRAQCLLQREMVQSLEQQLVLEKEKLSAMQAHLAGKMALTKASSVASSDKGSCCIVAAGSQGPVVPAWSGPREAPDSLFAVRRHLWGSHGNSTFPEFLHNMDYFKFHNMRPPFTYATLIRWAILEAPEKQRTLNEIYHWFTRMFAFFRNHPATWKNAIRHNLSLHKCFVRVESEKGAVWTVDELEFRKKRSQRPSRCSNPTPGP
Experimental: FIG. 14D depicts for the same BFPX-treated HEK293T cells transfected with AVI-TEV-FLAG-FOXP3 described in (FIG. 14C), TRIzol was used to extract genomic DNA. Briefly, for each aliquot of 0.25 million of cells, lyse and homogenize the sample in 200 μl TRIzol™ Reagent. Incubate for 5 minutes to permit complete dissociation of the nucleoproteins complex. 40 μl of chloroform was then added to the sample to incubate for 3 min. The sample was then centrifuged for 15 minutes at 12,000×g at 4° C. to separate into a lower red phenol/chloroform-interphase layer and a colorless upper aqueous phase. The upper aqueous phase was removed by pipetting. […] Run at 200V for 40 minutes on 4%-15% SDS-PAGE gel and analyzed by western blot (Transfer at 20V (40 mA) overnight, block in 2% BSA in PBS for 45 min, Primary antibody: 1:2000 anti-FLAG; room temperature, 2 hr; Secondary antibody: anti mouse light chain kappa 1:100,000; SuperSignal™ Western Blot Substrate Bundle, Femto).
TRIzol uses strong denaturing reagent (e.g. 4 M guanidine thiocyanate) to lyse the cells and completely dissociate nucleoprotein complexes. The extracted genomic DNA was then digested extensively with Benzonase and analyzed by SDS PAGE gel and western blot. […]

FOXP3 in Hela cells = biological target: T2, FOXP3 in Hela cells (Homo sapiens, UniProt Q9BZS1); assay: Capture of AVI-TEV-FLAG tagged FOXP3 complexes in transfected Hela cells, western blot
T2 construct: AVI tag; TEV site; expressed in transfected cells; host or cells: Hela
T2 sequence (Q9BZS1 1-431): T1 sequence (Q9BZS1 1-431)
Experimental: FIG. 10B depicts Western blot analysis of Hela cells transfected with AVI-TEV-FLAG tagged FOXP3. For each lane, approximately one million of cells were used. Lane 1 was fixed with 1% formaldehyde (FA) for 10 min according to standard protocol. Lane 2, untreated control, Lane 3, UV only, lane 4 and lane 6 were treated with SPB-AAD of 1 or 10 μM, respectively but without UV illumination, lane 5 and lane 7 were treated with SPB-AAD of 1 or 10 μM, respectively and illuminated by UV365 (10 min, 30 W, LED, sample distance 3 cm, cooling at 4 degree C.). The cells were lysed using RIPA buffer and further digested by MNase. The sample mixtures were mixed with SDS loading dye (2% SDS, boil for 10 min) and run on SDS gel for western blot analyses of using Anti-FLAG antibody.
We have performed similar experiments with a different system, Hela cells transfected with AVI-TEV-FLAG tagged FOXP3.

[2] = test system: MEF2A/DNA complexes in GM12878 cells; assay: Capture of MEF2A/DNA complexes in GM12878 nuclei, western blot; settings: probe 10 μM + UV365 10 min
Experimental: FIG. 10A depicts Western blot analysis of presence of complexing of MEF2A with DNA in GM12878 cells treated with UV365 and SPB-PEG3-AAD. For each lane, one million of GM12878 cells were used. The nuclei of the cells were extracted and resuspended in 500 μl PBS, treated with various combination of SPB-PEG3-AAD (10 μM) and/or UV365 (10 min, 30 W, LED, sample distance 3 cm, cooling at 4-degree C.). The samples were then sonicated using covaries (1 min) followed by limited MNase digestion (10 min, 37-degree C.). The lysed and partially digested samples were then mixed with SDS loading dye (2% SDS, boil for 10 min) and run on SDS gel for western blot analyses of MEF2A using Anti-MEF2 antibody (B-4) (SCBT, cat #sc-17785).
We tested the capture of MEF2A/DNA complexes in the GM12878 cell line, a Tier 1 ENCODE cell line with rich genomics data.

Compound	FOXP3 co-extracted with genomic DNA under strong denaturing conditions [1]	dependence of higher molecular weight FOXP3 complex formation on probe concentration (FOXP3 in Hela cells; 10 μM (lane 7) vs 1 μM (lane 5))	capture of higher molecular weight FOXP3 complexes (FOXP3 in Hela cells; probe 1 or 10 μM + UV365 10 min (lanes 5 and 7))	capture of MEF2A complexes [2]
C#CCCC1(CCNC(=O)CCCOc2c3occc3cc3ccc(=O)oc23)N=N1 [SPB-AAD, N-(2-(3-(but-3-yn-1-yl)-3H-diazirin-3-yl)ethyl)-4-((7-oxo-7H-furo[3,2-g]chromen-9-yl)oxy)butanamide]	showed FOXP3 proteins	dosage dependent	can capture higher molecular weight FOXP3 complexes	
C#CCCC1(CCNC(=O)CCOCCOCCOCCC(=O)NCCNC(=O)CCCOc2c3occc3cc3ccc(=O)oc23)N=N1 [SPB-PEG3-AAD]				could capture MEF2 complexes in the nucleus
